Results: patent US20250051321A1, “TRICYCLIC DERIVATIVE AND PREPARATION METHOD THEREFOR AND APPLICATION THEREOF” (SHANGHAI JEMINCARE PHARMACEUTICAL CO., LTD., priority 2021, published 2025)
pIC50: −log10 of the molar value. Like-named read-outs stand apart in the source and are kept apart here.

System: plasma LPA 18:1 and LPA 18:2
Assay: Human plasma ex vivo assay (LPA 18:1 / 18:2 by LC-MS/MS)
Type: biochemical
Details: 37° C., 2 hours
Procedure: The collected plasma was centrifuged at 4000 rpm for 15 minutes at 4° C. The supernatant was aliquoted into a 96-well plate (25 μL per well), sealed, and frozen at −80° C. for further use.
LPA 17:0 powder was dissolved in a mixed solution of water: isopropanol: formic acid (1:1:1) to a final concentration of […]. The mixture was aliquoted and frozen at −20° C.
1 volume of formic acid was added to 1000× methanol, mixed well, and stored at 4° C. a) The 96-well plate containing frozen plasma was removed from the −80° C. freezer and thawed on ice at room temperature. b) 6 μL of 50× LPA 17:0 (internal standard) and 264 μL of 0.1% FA were added to a clean well of the 96-well plate; the final concentration of LPA 17:0 (internal standard) was 50 nM. c) 6× compound was 1:3 serially diluted to a total of 8 concentrations, and 5 μL of the compound per well was added to the 96-well plate containing plasma. The maximum final concentration of the compound was 10 μM, and the final concentration of DMSO was 0.1%. The plate was centrifuged at 300 rpm for 30 seconds. The DMSO control sample reacted for 0 hours was used as the minimum value (Min), and the DMSO control sample reacted for 2 hours was used as the maximum value (Max). […]
d) The DMSO sample reacted for 0 hours was rapidly transferred to 0.1% FA solution containing the internal standard in step b) to terminate the reaction and precipitate plasma proteins. e) The 96-well plate containing plasma and compounds was rapidly incubated in a 37° C. incubator for 2 hours. After the incubation, 6 μL of 10× LPA 17:0 and 264 μL of 0.1% FA were added to each well to terminate the reaction and precipitate plasma proteins. […]
f) All the samples were mixed well with a pipette, and centrifuged at 4000 rpm for 10 minutes at 4° C. 150 μL of the supernatant was added to a 96-well U-bottom plate (Thermo 267245), sealed with silica gel, and then loaded. The contents of LPA 18:1 and LPA 18:2 in the samples were detected by LC-MS/MS system.
LPA 18:1(or 18:2) relative content=LPA 18:1(or 18:2) peak area/LPA 17:0 peak area Percentage reduction (%) in plasma LPA18:1(or 18:2)=(Max−X)/(Max−Min)*100 Max: LPA 18:1 (or 18:2) relative content of the DMSO sample reacted for 2 hours Min: LPA 18:1 (or 18:2) relative content of the DMSO sample reacted for 0 hours X: LPA 18:1 (or 18:2) relative content of the sample after compound treatment for 2 hours The IC50 of the compounds was calculated by fitting a nonlinear regression through percentage reduction in plasma LPA 18:1 (or 18:2) and log value of compound concentration using the software GraphPad Prism 8.
Y=Bottom+(Top−Bottom)/(1+10^((Log IC50−X)*Hill Slope))

[1] = LPA 18:1, read-out: Human plasma ex vivo assay IC50 (18:1 LPA)
[2] = LPA 18:2, read-out: Human plasma ex vivo assay IC50 (18:2 LPA)

`Cc1cc(N2CC3(CN(C(=O)C(C)(C)O)C3)C2)nc2c(N(C)c3nc(-c4ccc(F)cc4)c(C#N)s3)c3c(nc12)[C@](C)(O)CC3` (single isomer, unassigned) [Example E25-a] was tested, and the pIC50 [1] was 6.43 and the pIC50 [2] was 6.44.
`Cc1cc(N2CC3(CN(C(=O)C(C)(C)O)C3)C2)nc2c(N(C)c3nc(-c4ccc(F)cc4)c(C#N)s3)c3c(nc12)[C@@H](O)CC3` (single isomer, unassigned) [Example E32-a] gave a pIC50 [1] of 6.49 and a pIC50 [2] of 6.48.
`Cc1cc(N2CC3(CN(C(=O)C(C)(C)O)C3)C2)nc2c(N(C)c3nc(-c4ccc(F)cc4)c(C#N)s3)c3c(nc12)[C@H](O)CC3` (single isomer, unassigned) [Example E32-b] showed a pIC50 [1] of 6.43 and a pIC50 [2] of 6.31.
With `CN(c1nc(-c2ccc(F)cc2)c(C#N)s1)c1c2c(nc3c(F)cc(N4CC5(CN(C(=O)C(C)(C)O)C5)C4)cc13)[C@@](C)(O)CC2` (single isomer, unassigned) [Example E35-a] the pIC50 [1] was 6.41 and the pIC50 [2] was 6.55.
With `CN(c1nc(-c2ccc(F)cc2)c(C#N)s1)c1c2c(nc3c(F)cc(N4CC5(CN(C(=O)[C@@H]6CCCO6)C5)C4)cc13)[C@@H](O)CC2` (single isomer, unassigned) [Example E54-a] the pIC50 [1] was 6.14 and the pIC50 [2] was 6.32.
`CN(c1nc(-c2ccc(F)cc2)c(C#N)s1)c1c2c(nc3ccc(N4CCN(CC(=O)N5CC(O)C5)CC4)nc13)COC2` [Example A13] gave a pIC50 [1] of 6.71 and a pIC50 [2] of 6.69.
In the case of `CN(c1nc(-c2ccc(F)cc2)c(C#N)s1)c1c2c(nc3ccc(N4CC5(CN(C(=O)C(C)(C)O)C5)C4)nc13)CC2` [Example C24], the pIC50 [1] was 6.63 and the pIC50 [2] was 6.66.
In the case of `CN(c1nc(-c2ccc(F)cc2)c(C#N)s1)c1c2c(nc3c(F)cc(N4CC5(CN(C(=O)CN6CC[C@@H](O)C6)C5)C4)cc13)C(O)CC2` (stereo partly shown) [Example E27], the pIC50 [1] was 6.54 and the pIC50 [2] was 6.50.
`CN(c1nc(-c2ccc(F)cc2)c(C#N)s1)c1c2c(nc3c(F)cc(N4CC5(CN(C(=O)CN6CC[C@H](O)C6)C5)C4)cc13)C(O)CC2` (stereo partly shown) [Example E28] showed a pIC50 [1] of 6.53 and a pIC50 [2] of 6.57.
`CN(c1nc(-c2ccc(F)cc2)c(C#N)s1)c1c2c(nc3c(F)cc(N4CC5(CN(C(=O)C(C)(C)N)C5)C4)cc13)C(O)CC2` (stereo not shown) [Example E29] was tested, and the pIC50 [1] was 6.28 and the pIC50 [2] was 6.28.
For `COC(C)(C)C(=O)N1CC2(C1)CN(c1cc(F)c3nc4c(c(N(C)c5nc(-c6ccc(F)cc6)c(C#N)s5)c3c1)CCC4O)C2` (stereo not shown) [Example E30], the pIC50 [1] was 6.78 and the pIC50 [2] was 6.82.
With `CN(c1nc(-c2ccc(F)cc2)c(C#N)s1)c1c2c(nc3c(F)cc(N4CC5(CN(CC(=O)N6CC[C@@H](O)C6)C5)C4)cc13)C(O)CC2` (stereo partly shown) [Example E31] the pIC50 [1] was 6.65 and the pIC50 [2] was 6.78.
For `CC(C(=O)N1CC(O)C1)N1CCN(c2cc(F)c3nc4c(c(N(C)c5nc(-c6ccc(F)cc6)c(C#N)s5)c3c2)CCC4O)CC1` (stereo not shown) [Example E33], the pIC50 [1] was 6.49 and the pIC50 [2] was 6.81.
Compound `CN(c1nc(-c2ccc(F)cc2)c(C#N)s1)c1c2c(nc3c(F)cc(N4CC5(CN(C(=O)C(C)(C)O)C5)C4)cc13)C(C)(O)CC2` (stereo not shown) [Example E35] has a pIC50 [1] of 6.52 and a pIC50 [2] of 6.41.
`CN(c1nc(-c2ccc(F)cc2)c(C#N)s1)c1c2c(nc3c(F)cc(N4CC5(CN(C(=O)C(C)(C)O)C5)C4)cc13)C(=O)CC2` [Example E36] was tested, and the pIC50 [1] was 6.43 and the pIC50 [2] was 6.51.
Compound `CN(c1nc(-c2ccc(F)cc2)c(C#N)s1)c1c2c(nc3c(F)cc(N4CC5(CN(C(=O)CO)C5)C4)cc13)C(O)CC2` (stereo not shown) [Example E39] has a pIC50 [1] of 6.50 and a pIC50 [2] of 6.40.
Compound `CN(c1nc(-c2ccc(F)cc2)c(C#N)s1)c1c2c(nc3c(F)cc(N4CCN(CC(=O)N5CC[C@@H](O)C5)CC4)cc13)C(O)CC2` (stereo partly shown) [Example E40] has a pIC50 [2] of 6.47.
`CN(c1nc(-c2ccc(F)cc2)c(C#N)s1)c1c2c(nc3c(F)cc(N4CCN(CC(=O)N5CC[C@H](O)C5)CC4)cc13)C(O)CC2` (stereo partly shown) [Example E41] was tested, and the pIC50 [1] was 6.52 and the pIC50 [2] was 6.53.
In the case of `CN1CCC(F)(C(=O)N2CC3(C2)CN(c2cc(F)c4nc5c(c(N(C)c6nc(-c7ccc(F)cc7)c(C#N)s6)c4c2)CCC5O)C3)C1` (stereo not shown) [Example E42], the pIC50 [1] was 6.39 and the pIC50 [2] was 6.33.
`CC(C)C(=O)N1CC2(C1)CN(c1cc(F)c3nc4c(c(N(C)c5nc(-c6ccc(F)cc6)c(C#N)s5)c3c1)CCC4O)C2` (stereo not shown) [Example E43] was tested, and the pIC50 [1] was 6.18 and the pIC50 [2] was 6.13.
`CN(c1nc(-c2ccc(F)cc2)c(C#N)s1)c1c2c(nc3c(F)cc(N4CC5(CN(CC(=O)N6CC(C)(O)C6)C5)C4)cc13)C(O)CC2` (stereo not shown) [Example E44] gave a pIC50 [1] of 6.53 and a pIC50 [2] of 6.53.
`CN(c1nc(-c2ccc(F)cc2)c(C#N)s1)c1c2c(nc3c(F)cc(N4CC5(CCN(CC(=O)N6CC(O)C6)CC5)C4)cc13)C(O)CC2` (stereo not shown) [Example E45] gave a pIC50 [1] of 6.23 and a pIC50 [2] of 6.45.
Compound `CN(c1nc(-c2ccc(F)cc2)c(C#N)s1)c1c2c(nc3c(F)cc(N4CC5(CN(C(=O)CN6CC(O)C6)C5)C4)cc13)C(O)CC2` (stereo not shown) [Example E47] has a pIC50 [1] of 6.36 and a pIC50 [2] of 6.39.
With `CN(c1nc(-c2ccc(F)cc2)c(C#N)s1)c1c2c(nc3c(F)cc(N4CCC5(CCN(CC(=O)N6CC(O)C6)CC5)C4)cc13)C(O)CC2` (stereo not shown) [Example E48] the pIC50 [1] was 6.13 and the pIC50 [2] was 6.17.
Work on `CN(c1nc(-c2ccc(F)cc2)c(C#N)s1)c1c2c(nc3c(F)cc(N4CC5(CN(C(=O)C6CC(=O)OC67CCCC7)C5)C4)cc13)C(O)CC2` (stereo not shown) [Example E49] yielded a pIC50 [1] of 6.31 and a pIC50 [2] of 6.24.
Compound `CN(c1nc(-c2ccc(F)cc2)c(C#N)s1)c1c2c(nc3c(F)cc(N4CC5(CN(C(=O)[C@H]6CCCN6C)C5)C4)cc13)C(O)CC2` (stereo partly shown) [Example E50] has a pIC50 [1] of 6.23 and a pIC50 [2] of 6.26.
Compound `CN(c1nc(-c2ccc(F)cc2)c(C#N)s1)c1c2c(nc3c(F)cc(N4CC5(CN(C(=O)[C@@H]6CCCN6C)C5)C4)cc13)C(O)CC2` (stereo partly shown) [Example E51] has a pIC50 [1] of 6.46 and a pIC50 [2] of 6.07.
In the case of `CN(c1nc(-c2ccc(F)cc2)c(C#N)s1)c1c2c(nc3c(F)cc(N4CC5(CN(C(=O)C6(N)CCOC6)C5)C4)cc13)C(O)CC2` (stereo not shown) [Example E52], the pIC50 [1] was 6.17 and the pIC50 [2] was 6.37.
`CN(c1nc(-c2ccc(F)cc2)c(C#N)s1)c1c2c(nc3c(F)cc(N4CC5(CN(C(=O)C6CCOC6=O)C5)C4)cc13)C(O)CC2` (stereo not shown) [Example E56] was tested, and the pIC50 [1] was 6.30 and the pIC50 [2] was 6.36.
With `CN(c1nc(-c2ccc(F)cc2)c(C#N)s1)c1c2c(nc3c(F)cc(N4CC5(CN(CC(=O)N6CC(O)C6)C5)C4)cc13)C(O)CC2` (stereo not shown) [Example E57] the pIC50 [1] was 6.74 and the pIC50 [2] was 6.77.
Compound `CN(c1nc(-c2ccc(F)cc2)c(C#N)s1)c1c2c(nc3c(F)cc(N4CC5(CN(C(=O)C6CC(O)C6)C5)C4)cc13)C(O)CC2` (stereo not shown) [Example E58] has a pIC50 [1] of 6.58 and a pIC50 [2] of 6.57.
`CN(c1nc(-c2ccc(F)cc2)c(C#N)s1)c1c2c(nc3c(F)cc(N4CC5(CN(C(=O)C6(C)CCOC6)C5)C4)cc13)C(O)CC2` (stereo not shown) [Example E59] showed a pIC50 [1] of 6.62 and a pIC50 [2] of 6.39.
Compound `CN(c1nc(-c2ccc(F)cc2)c(C#N)s1)c1c2c(nc3c(F)cc(N4CC5(CN(C(=O)C6CCCC6)C5)C4)cc13)C(O)CC2` (stereo not shown) [Example E60] has a pIC50 [1] of 6.34 and a pIC50 [2] of 6.35.
With `CN(c1nc(-c2ccc(F)cc2)c(C#N)s1)c1c2c(nc3c(F)cc(N4CC5(CN(C(=O)[C@H]6CCCO6)C5)C4)cc13)C(O)CC2` (stereo partly shown) [Example E61] the pIC50 [1] was 6.23 and the pIC50 [2] was 6.08.
With `CN(c1nc(-c2ccc(F)cc2)c(C#N)s1)c1c2c(nc3c(F)cc(N4CC5(CN(C(=O)C6CCC(=O)O6)C5)C4)cc13)C(O)CC2` (stereo not shown) [Example E62] the pIC50 [1] was 6.48 and the pIC50 [2] was 6.24.
With `CN(c1nc(-c2ccc(F)cc2)c(C#N)s1)c1c2c(nc3c(F)cc(N4CC5(CN(C(=O)C(C)(C)O)C5)C4)nc13)C(O)CC2` (stereo not shown) [Example E65] the pIC50 [1] was 6.43 and the pIC50 [2] was 6.30.
Work on `CCc1nc2c(C)cc(N3CCN(CC(=O)N4CC(O)C4)CC3)cn2c1N(C)c1nc(-c2ccc(F)cc2)c(C#N)s1` [GLPG1690, reference compound] yielded a pIC50 [1] of 6.33 and a pIC50 [2] of 6.33.
